{"source": "patent US20100152434A1", "about": "“Protein Kinase-binding Nucleosides and Associated Methods” (priority 2007, published 2010)", "key": {"[1]": {"system": "CCRF-CEM"}, "[2]": {"system": "NCI-H460"}, "[3]": {"system": "HCT-116"}, "[4]": {"system": "SF-539"}, "[5]": {"system": "U251"}, "[6]": {"system": "SK-MEL-5"}, "[7]": {"system": "UACC-257"}, "[8]": {"system": "SN12C"}, "[9]": {"system": "MDA-MB-435", "details": "MDA-MB-435"}, "[10]": {"system": "60 different human tumor cell lines (the NCI 60)", "experiment": "cells", "details": "read-out: LC50 value for each cell line"}, "[11]": {"system": "HOP-92", "experiment": "cells", "details": "Homo sapiens"}, "[12]": {"system": "NCI-H23", "experiment": "cells", "details": "Homo sapiens"}, "[13]": {"system": "COLO 205", "experiment": "cells", "details": "Homo sapiens"}, "[14]": {"system": "HCC-2998", "experiment": "cells", "details": "Homo sapiens"}, "[15]": {"system": "KM12", "experiment": "cells", "details": "Homo sapiens"}, "[16]": {"system": "SW-620", "experiment": "cells", "details": "Homo sapiens"}, "[17]": {"system": "SNB-19", "experiment": "cells", "details": "Homo sapiens"}, "[18]": {"system": "SK-MEL-28", "experiment": "cells", "details": "Homo sapiens"}, "[19]": {"system": "UACC-257", "experiment": "cells", "details": "Homo sapiens"}, "[20]": {"system": "UACC-62", "experiment": "cells", "details": "Homo sapiens"}, "[21]": {"system": "OVCAR-3", "experiment": "cells", "details": "Homo sapiens"}, "[22]": {"system": "OVCAR-5", "experiment": "cells", "details": "Homo sapiens"}, "[23]": {"system": "OVCAR-8", "experiment": "cells", "details": "Homo sapiens"}, "[24]": {"system": "SK-OV-3", "experiment": "cells", "details": "Homo sapiens"}, "[25]": {"experiment": "cells", "details": "Homo sapiens, 786-0, read-out: LC50"}, "[26]": {"system": "ACHN", "experiment": "cells", "details": "Homo sapiens"}, "[27]": {"system": "MDA-MB-435", "experiment": "cells", "details": "Homo sapiens"}, "[28]": {"system": "BT-549", "experiment": "cells", "details": "Homo sapiens"}}, "note": "Read-outs that look alike come from different tables or passages of the source.", "data": [{"compound": "CNC(=O)NC[C@H]1O[C@@H](n2cnc3c(NC(=O)Nc4ccccc4)ncnc32)[C@H](O[Si](C)(C)C(C)(C)C)[C@@H]1CC(=O)N(C)OC", "note": "[Compound 13, 2′-O-(tert-Butyldimethylsilyl)-3′,5′-dideoxy-3′-[(N-methoxy-N-methylcarboxamido)methyl]-5′-[(N-methylcarbamoyl)amino]-N^6-(N-phenylcarbamoyl)adenosine]", "values": [{"measurement": "TGI", "setting": "[1]", "result": ">1.00E−4", "unit": "Molar"}, {"measurement": "Percent Growth", "setting": "[1]; Log10 Concentration −4.0", "result": 23, "unit": "%"}, {"measurement": "Percent Growth", "setting": "[1]; Log10 Concentration −5.0", "result": 39, "unit": "%"}, {"measurement": "Percent Growth", "setting": "[1]; Log10 Concentration −6.0", "result": 96, "unit": "%"}, {"measurement": "Percent Growth", "setting": "[1]; Log10 Concentration −7.0", "result": 100, "unit": "%"}, {"measurement": "Percent Growth", "setting": "[1]; Log10 Concentration −8.0", "result": 101, "unit": "%"}, {"measurement": "TGI", "setting": "[2]", "result": ">1.00E−4", "unit": "Molar"}, {"measurement": "Percent Growth", "setting": "[2]; Log10 Concentration −4.0", "result": 25, "unit": "%"}, {"measurement": "Percent Growth", "setting": "[2]; Log10 Concentration −5.0", "result": 44, "unit": "%"}, {"measurement": "Percent Growth", "setting": "[2]; Log10 Concentration −6.0", "result": 90, "unit": "%"}, {"measurement": "Percent Growth", "setting": "[2]; Log10 Concentration −7.0", "result": 93, "unit": "%"}, {"measurement": "Percent Growth", "setting": "[2]; Log10 Concentration −8.0", "result": 96, "unit": "%"}, {"measurement": "TGI", "setting": "[3]", "result": ">1.00E−4", "unit": "Molar"}, {"measurement": "Percent Growth", "setting": "[3]; Log10 Concentration −4.0", "result": 6, "unit": "%"}, {"measurement": "Percent Growth", "setting": "[3]; Log10 Concentration −5.0", "result": 26, "unit": "%"}, {"measurement": "Percent Growth", "setting": "[3]; Log10 Concentration −6.0", "result": 89, "unit": "%"}, {"measurement": "Percent Growth", "setting": "[3]; Log10 Concentration −7.0", "result": 90, "unit": "%"}, {"measurement": "Percent Growth", "setting": "[3]; Log10 Concentration −8.0", "result": 93, "unit": "%"}, {"measurement": "TGI", "setting": "[4]", "result": ">1.00E−4", "unit": "Molar"}, {"measurement": "Percent Growth", "setting": "[4]; Log10 Concentration −4.0", "result": 23, "unit": "%"}, {"measurement": "Percent Growth", "setting": "[4]; Log10 Concentration −5.0", "result": 65, "unit": "%"}, {"measurement": "Percent Growth", "setting": "[4]; Log10 Concentration −6.0", "result": 89, "unit": "%"}, {"measurement": "Percent Growth", "setting": "[4]; Log10 Concentration −7.0", "result": 94, "unit": "%"}, {"measurement": "Percent Growth", "setting": "[4]; Log10 Concentration −8.0", "result": 96, "unit": "%"}, {"measurement": "TGI", "setting": "[5]", "result": ">1.00E−4", "unit": "Molar"}, {"measurement": "Percent Growth", "setting": "[5]; Log10 Concentration −4.0", "result": 25, "unit": "%"}, {"measurement": "Percent Growth", "setting": "[5]; Log10 Concentration −5.0", "result": 37, "unit": "%"}, {"measurement": "Percent Growth", "setting": "[5]; Log10 Concentration −6.0", "result": 90, "unit": "%"}, {"measurement": "Percent Growth", "setting": "[5]; Log10 Concentration −7.0", "result": 101, "unit": "%"}, {"measurement": "Percent Growth", "setting": "[5]; Log10 Concentration −8.0", "result": 97, "unit": "%"}, {"measurement": "TGI", "setting": "[6]", "result": ">1.00E−4", "unit": "Molar"}, {"measurement": "Percent Growth", "setting": "[6]; Log10 Concentration −4.0", "result": 11, "unit": "%"}, {"measurement": "Percent Growth", "setting": "[6]; Log10 Concentration −5.0", "result": 38, "unit": "%"}, {"measurement": "Percent Growth", "setting": "[6]; Log10 Concentration −6.0", "result": 89, "unit": "%"}, {"measurement": "Percent Growth", "setting": "[6]; Log10 Concentration −7.0", "result": 98, "unit": "%"}, {"measurement": "Percent Growth", "setting": "[6]; Log10 Concentration −8.0", "result": 104, "unit": "%"}, {"measurement": "TGI", "setting": "[7]", "result": ">1.00E−4", "unit": "Molar"}, {"measurement": "Percent Growth", "setting": "[7]; Log10 Concentration −4.0", "result": 22, "unit": "%"}, {"measurement": "Percent Growth", "setting": "[7]; Log10 Concentration −5.0", "result": 65, "unit": "%"}, {"measurement": "Percent Growth", "setting": "[7]; Log10 Concentration −6.0", "result": 102, "unit": "%"}, {"measurement": "Percent Growth", "setting": "[7]; Log10 Concentration −7.0", "result": 103, "unit": "%"}, {"measurement": "Percent Growth", "setting": "[7]; Log10 Concentration −8.0", "result": 95, "unit": "%"}, {"measurement": "TGI", "setting": "[8]", "result": ">1.00E−4", "unit": "Molar"}, {"measurement": "Percent Growth", "setting": "[8]; Log10 Concentration −4.0", "result": 49, "unit": "%"}, {"measurement": "Percent Growth", "setting": "[8]; Log10 Concentration −5.0", "result": 66, "unit": "%"}, {"measurement": "Percent Growth", "setting": "[8]; Log10 Concentration −6.0", "result": 96, "unit": "%"}, {"measurement": "Percent Growth", "setting": "[8]; Log10 Concentration −7.0", "result": 104, "unit": "%"}, {"measurement": "Percent Growth", "setting": "[8]; Log10 Concentration −8.0", "result": 106, "unit": "%"}, {"measurement": "TGI", "setting": "[9]", "result": ">1.00E−4", "unit": "Molar"}, {"measurement": "Percent Growth", "setting": "[9]; Log10 Concentration −4.0", "result": 36, "unit": "%"}, {"measurement": "Percent Growth", "setting": "[9]; Log10 Concentration −5.0", "result": 51, "unit": "%"}, {"measurement": "Percent Growth", "setting": "[9]; Log10 Concentration −6.0", "result": 98, "unit": "%"}, {"measurement": "Percent Growth", "setting": "[9]; Log10 Concentration −7.0", "result": 97, "unit": "%"}, {"measurement": "Percent Growth", "setting": "[9]; Log10 Concentration −8.0", "result": 100, "unit": "%"}, {"measurement": "CC50", "setting": "[10]", "result": "> 100", "unit": "µM"}, {"measurement": "GI50", "setting": "[11]; HOP-92", "result": 2.71, "unit": "µM"}, {"measurement": "CC50", "setting": "[11]; HOP-92, read-out: LC50", "result": "> 100", "unit": "µM"}, {"measurement": "GI50", "setting": "[12]; NCI-H23", "result": 57.2, "unit": "µM"}, {"measurement": "CC50", "setting": "[12]; NCI-H23, read-out: LC50", "result": "> 100", "unit": "µM"}, {"measurement": "GI50", "setting": "[13]; COLO 205", "result": 12.3, "unit": "µM"}, {"measurement": "CC50", "setting": "[13]; COLO 205, read-out: LC50", "result": "> 100", "unit": "µM"}, {"measurement": "GI50", "setting": "[14]; HCC 2998", "result": 30.6, "unit": "µM"}, {"measurement": "CC50", "setting": "[14]; HCC 2998, read-out: LC50", "result": "> 100", "unit": "µM"}, {"measurement": "GI50", "setting": "[15]; KM12", "result": 23.9, "unit": "µM"}, {"measurement": "CC50", "setting": "[15]; KM12, read-out: LC50", "result": "> 100", "unit": "µM"}, {"measurement": "GI50", "setting": "[16]; SW-620", "result": "> 100", "unit": "µM"}, {"measurement": "CC50", "setting": "[16]; SW-620, read-out: LC50", "result": "> 100", "unit": "µM"}, {"measurement": "GI50", "setting": "[17]; SNB-19", "result": "> 100", "unit": "µM"}, {"measurement": "CC50", "setting": "[17]; SNB-19, read-out: LC50", "result": "> 100", "unit": "µM"}, {"measurement": "GI50", "setting": "[18]; SK-MEL-28", "result": 7.77, "unit": "µM"}, {"measurement": "CC50", "setting": "[18]; SK-MEL-28, read-out: LC50", "result": "> 100", "unit": "µM"}, {"measurement": "GI50", "setting": "[19]; UACC-257", "result": 22.6, "unit": "µM"}, {"measurement": "CC50", "setting": "[19]; UACC-257, read-out: LC50", "result": "> 100", "unit": "µM"}, {"measurement": "GI50", "setting": "[20]; UACC-62", "result": 41.9, "unit": "µM"}, {"measurement": "CC50", "setting": "[20]; UACC-62, read-out: LC50", "result": "> 100", "unit": "µM"}, {"measurement": "GI50", "setting": "[21]; OVCAR-3", "result": 7.11, "unit": "µM"}, {"measurement": "CC50", "setting": "[21]; OVCAR-3, read-out: LC50", "result": "> 100", "unit": "µM"}, {"measurement": "GI50", "setting": "[22]; OVCAR-5", "result": 38.2, "unit": "µM"}, {"measurement": "CC50", "setting": "[22]; OVCAR-5, read-out: LC50", "result": "> 100", "unit": "µM"}, {"measurement": "GI50", "setting": "[23]; OVCAR-8", "result": 9.02, "unit": "µM"}, {"measurement": "CC50", "setting": "[23]; OVCAR-8, read-out: LC50", "result": "> 100", "unit": "µM"}, {"measurement": "GI50", "setting": "[24]; SK-OV-3", "result": 52.7, "unit": "µM"}, {"measurement": "CC50", "setting": "[24]; SK-OV-3, read-out: LC50", "result": "> 100", "unit": "µM"}, {"measurement": "CC50", "setting": "[25]", "result": "> 100", "unit": "µM"}, {"measurement": "GI50", "setting": "[26]", "result": 14.4, "unit": "µM"}, {"measurement": "CC50", "setting": "[26]; read-out: LC50", "result": "> 100", "unit": "µM"}, {"measurement": "GI50", "setting": "[27]; MDA-MB-435", "result": 10.9, "unit": "µM"}, {"measurement": "CC50", "setting": "[27]; MDA-MB-435, read-out: LC50", "result": "> 100", "unit": "µM"}, {"measurement": "GI50", "setting": "[28]; BT-549", "result": 29, "unit": "µM"}, {"measurement": "CC50", "setting": "[28]; BT-549, read-out: LC50", "result": "> 100", "unit": "µM"}]}]}
